Source: US20240376363A1, “FLUORINE SUBSTITUTED CYCLOBUTENE COMPOUNDS, AND COMPOSITIONS, METHODS AND USES INCLUDING SAME” (HONEYWELL INTERNATIONAL INC., priority 2021, published 2024)

Tests used:
[1] = long term (28 day) toxicity exposure; type: in vivo; details: 28 day exposure
[2] = miscibility with mineral oil; type: physicochemical; details: for Miscibility: with mineral oil, concentration up to which miscible
Text: In addition, the compounds of the present invention have good miscibility with lubricants, including lubricants used in vapour compression refrigeration systems. For example, the Compounds 1 and 3 are fully miscible with e mineral oil at concentrations up to about 66.7 weight percent as indicated in the following table.

flash point (ASTM D3828) = type: physicochemical
Protocol: Flash Point refers the lowest temperature at which vapors of the liquid will […] as determined in accordance with ASTM D3828.
Non-flammable in the context of a thermal management composition or fluid means compounds or compositions which are determined to be non-flammable. The flash point of a thermal management composition or fluid refers the lowest temperature at which vapors of the composition will keep burning after the ignition source is removed as determined in accordance with ASTM D3828.

[3] = short term (4 hour) toxicity exposure; type: in vivo; details: 4 hour exposure
Text: LC50 is a measure of the acute toxicity of a compound. The acute inhalation toxicity of a compound can be assessed using the method described in the OECD Guideline for Testing of Chemicals No. 403 “Acute Inhalation Toxicity” (2009), Method B.2. (Inhalation) of Commission Regulation (EC) No. 440/2008.

heat of vaporization = type: physicochemical

Row | SMILES | Normal Boiling Point (normal boiling point) | Heat of Vaporization (heat of vaporization) | other results
1 | FC1=C(Cl)CC1(F)F [Compound 1, 1-chloro-2,3,3-trifluorocyclo-1-ene] | 52 °C |  | long term (28 day) toxicity exposure [1]: failed; Miscibility [2]: Miscible up to 66.7%; Flash Point (flash point (ASTM D3828)): No flash point
2 | FC1=CCC1(F)F [Compound 2, 1,4,4-trifluorocyclobut-1-ene] | 32 °C |  | Miscibility with mineral oil ([2]; ratio compound to mineral oil): Not miscible; Flash Point (flash point (ASTM D3828)): Flash point observed
3 | FC1(F)C(Cl)=C(Cl)C1(F)F [Compound 3, 1,2-dichloro-3,3,4,4-tetrafluorocyclobut-1-ene] | 58 °C |  | short term (4 hour) toxicity exposure [3]: failed; Miscibility [2]: Miscible up to 66.7%; Flash Point (flash point (ASTM D3828)): No flash point
4 | COC1=C(Cl)C(F)(F)C1(F)F [Compound 4] | 110 °C |  | 
5 | COC1=C(OC)C(F)(F)C1(F)F [Compound 11, 3,3,4,4-tetrafluoro-1,2-dimethoxycyclobut-1-ene] | 127 °C |  | 
6 | FC(F)(F)OC1=C(OC(F)(F)F)C(F)(F)C1(F)F [Compound 13] | 144 °C | 32 kJ/mol | 
7 | FC1=C(OC(C(F)(F)F)C(F)(F)F)C(F)(F)C1(F)F [Compound 14, 1,3,3,4,4-pentafluoro-2-((1,1,1,3,3,3-hexafluoropropan-2-yl)oxy)cyclobut-1-ene] |  | 31 kJ/mol | 
8 | FC(F)(F)C(OC1=C(OC(C(F)(F)F)C(F)(F)F)C(F)(F)C1(F)F)C(F)(F)F [Compound 15, 3,3,4,4-pentafluoro-1,2-bis((1,1,1,3,3,3-hexafluoropropan-2-yl)oxy) cyclobut-1-ene] |  | 34 kJ/mol | 
9 | FC1=C(Oc2ccccc2)C(F)(F)C1(F)F [Compound 16, ((perfluorocyclobut-1-en-1-yl)oxy)benzene] |  | 42 kJ/mol | 
10 | FC1(F)C(Oc2ccccc2)=C(Oc2ccccc2)C1(F)F [Compound 17, ((perfluorocyclobut-1-ene-1,2-diyl)bis(oxy))dibenzene] |  | 75 kJ/mol | 
11 | FC(F)(F)COC1=C(Cl)C(F)(F)C1(F)F [Compound 18, 1-chloro-3,3,4,4-tetrafluoro-2-(2,2,2-trifluoroethoxy) cyclobut-1-ene] |  | 38 kJ/mol | 
